Results reported in patent US9644011B2 (priority 2005, dated 2017).

Experiments:
mouse sciatic nerve = settings: cited from earlier work
muscle strength of mice = settings: mouse, in vivo

Compound	concentration necessary for similar inhibitory effect on mouse sciatic nerve (mouse sciatic nerve)	time to decrease of 50% of the relative strength (muscle strength of mice) [min]
CCN(CC)CC(=O)Nc1c(C)cccc1C [lidocaine]	Millimolar concentrations	
CCN(CC)CCOC(=O)c1ccc(N)cc1 [procaine]		~10
